# Measurements: PMC5587642, “A Novel Benzocoumarin-Stilbene Hybrid as a DNA ligase I inhibitor with in vitro and in vivo anti-tumor activity in breast cancer models” (Scientific Reports, 2017)
# Experiments:
# [1] = tested on: MDA-MB-231 cells; experiment: Annexin V-FITC/PI apoptosis flow cytometry; assay type: cell-based, human
# Method: Apoptotic cell death of MDA-MB-231 cells upon treatment with compound 19 was measured using a commercially available Annexin V-FITC apoptosis detection kit according to the manufacturer’s protocol (BD Biosciences, San Diego, CA). Briefly, cells were treated with different concentrations (0, 6 and 12 µM) of compound 19 for 24 and 48 h. The cells were then harvested, washed with cold PBS and stained with Annexin V-FITC and propidium iodide (PI) in binding buffer at room temperature in the dark. The stained cells were analyzed by fluorescence-activated cell sorting using a FACS-Calibur instrument (BD Biosciences, San Diego, CA) equipped with CellQuest 3.3 Software.
# [2] = tested on: DNA ligase activity in 4T1 cell lysate; experiment: Ex-vivo ligation assay with lysate of treated cells; assay type: cell-based, mouse; settings: 4T1, treated 48 h
# Method: The MDA-MB-231 and 4T1 cells were treated with different concentrations of compound 19 for 48h. Cell lysate were prepared as described previously ^6 for the ligation assay. Here we used same DNA substrate which was used in FEN1 flap cleavage assay so that we can check the activity of hLigI and FEN1 proteins in compound 19 treated samples. The reactions were performed as described previously ^6. In the Supplementary Fig. 74 cleaved product remain (25 mer) same. This cleaved product occurs after the cleavage of 25+6 mer oligo by FEN1 protein, since the cleaved product (25 mer) remains same in treated as well as in control samples we can conclude that the compound 19 unable to inhibit the FEN1 protein inside the cells. The cleaved product (25 mer) make a double strand nicked substrate for hLig I protein with 27 mer and 52 mer oligo used in the reaction. hLigI protein gives rise to ligated (52 mer oligo) product after the completion of reaction. In the treated samples, ligated product (52 mer) decreases as compared to untreated samples.
# [3] = Stability in simulated gastric and intestinal fluids; assay type: in vitro ADME; settings: 2 µg/mL, up to 180 min
# Method: Simulated gastric fluid (SGF) and simulated intestinal fluid (SIF) were prepared according to USP specifications. The compound 19 was incubated in SGF (0.2 g NaCl, 0.32 g pepsin, 0.7 mL HCl and triple distilled water up to 100 mL, pH 1.2) or SIF (0.680 g […], 0.616 g NaOH, 1 g pancreatin and triple distilled water up to 100 mL, pH 6.8). From the stock solution of compound 19 (1 mg/mL), equivalent concentration of 2 μg/mL of compound 19 were added to 1 mL of preincubated reaction mixture of SGF and SIF, at 37 °C in a shaking water bath in triplicate. 100 μL aliquots of sample was collected at each time point at 0, 5, 15, 30 and 60 min for SGF and 0, 5, 15, 30, 60 90, 120 and 180 min for SIF according to the human gastrointestinal transit time, followed by quenching with acetonitrile, then vortexed and centrifuged at 12000 rpm for 5 min. The supernatant was collected and analyzed by HPLC. The graph was plotted between % drug remaining and incubation time for SGF and SIF.
# [4] = tested on: MDA-MB-231 cells; experiment: Clonogenic survival assay; assay type: cell-based, human; settings: 0.75, 1.5 and 3 µM; 24 and 48 h treatment
# Method: Clonogenic survival assay was performed as described previously[16] with modifications. MDA-MB-231 cells (100 cells) were seeded in 12 well plates for 24 h. Cells were then treated with different concentrations of compound 19 (0.75, 1.5 and 3 µM) for 24 and 48 h. After drug treatment, culture medium was replaced with fresh medium and cells were cultured for another 10 days. After 10 days, the cells were washed with PBS carefully and stained with a solution containing 6% glutaraldehyde and 0.5% crystal violet.
# [5] = target: PARP1 (Homo sapiens, UniProt P09874); experiment: PARP1 activity assay (NAD fluorescence); settings: compound 19 at 5, 10 and 20 µM
# Chain of PARP1 (P09874 whole entry): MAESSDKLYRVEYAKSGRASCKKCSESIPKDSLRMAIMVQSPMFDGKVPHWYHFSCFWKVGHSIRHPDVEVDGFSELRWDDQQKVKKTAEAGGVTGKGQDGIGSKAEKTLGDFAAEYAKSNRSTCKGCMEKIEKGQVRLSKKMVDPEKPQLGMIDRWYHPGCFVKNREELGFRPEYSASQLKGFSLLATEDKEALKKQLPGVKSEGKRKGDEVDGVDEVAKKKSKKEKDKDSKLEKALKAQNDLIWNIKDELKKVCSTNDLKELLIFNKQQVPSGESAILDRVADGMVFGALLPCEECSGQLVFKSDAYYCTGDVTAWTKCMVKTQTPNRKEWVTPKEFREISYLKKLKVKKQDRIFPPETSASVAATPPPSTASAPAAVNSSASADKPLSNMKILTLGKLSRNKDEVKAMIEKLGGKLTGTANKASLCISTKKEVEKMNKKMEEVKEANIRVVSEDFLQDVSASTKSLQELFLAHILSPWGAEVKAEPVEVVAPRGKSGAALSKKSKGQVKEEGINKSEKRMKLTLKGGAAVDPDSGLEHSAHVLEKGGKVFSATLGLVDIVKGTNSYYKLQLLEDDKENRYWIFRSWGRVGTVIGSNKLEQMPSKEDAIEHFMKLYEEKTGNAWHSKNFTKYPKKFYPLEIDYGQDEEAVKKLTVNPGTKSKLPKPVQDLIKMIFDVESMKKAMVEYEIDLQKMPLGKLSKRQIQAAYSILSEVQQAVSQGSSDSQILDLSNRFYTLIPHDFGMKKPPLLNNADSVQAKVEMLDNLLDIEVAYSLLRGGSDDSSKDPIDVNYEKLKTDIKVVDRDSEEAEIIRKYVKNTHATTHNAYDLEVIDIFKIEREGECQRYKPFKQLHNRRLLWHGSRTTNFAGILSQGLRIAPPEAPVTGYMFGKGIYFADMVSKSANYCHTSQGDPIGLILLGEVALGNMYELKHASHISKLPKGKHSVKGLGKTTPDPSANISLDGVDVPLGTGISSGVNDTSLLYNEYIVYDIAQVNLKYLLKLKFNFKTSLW
# Source text: Human PARP1 full length protein was purified as described previously ^4,5.
# Samples were cooled and fluorescence measurement carried out at excitation 360nm and emission range 445nm.
# [6] = In-vivo pharmacokinetic study; parameters: species or system Sprague Dawley (SD) rats; settings: rat
# Method: Male Sprague Dawley (SD) rats weighing 200–220 g were obtained from the Laboratory of Animal Division of CSIR-CDRI (Lucknow, India). Animals were kept in well ventilated cages in hygienic conditions at room temperature (24 ± 2 °C), 40–60% relative humidity and 12 h light-dark cycle. The animals were acclimatized for a minimum period of 3 days prior to the experiments. Pharmacokinetic study was conducted according to protocol approved by the CSIR-CDRI Institutional Animal Ethic Committee (IAEC approval no. IAEC/2012/91). Compound 19 was dissolved in DMSO:Poly Ethylene Glycol-400: 0.9%w/v saline in the ratio of 1:1:2 and was intravenously administered at the dose of 5 mg/kg to each rat (n = 6). The rats were kept on fasting overnight with water alone for oral pharmacokinetic studies. Compound 19 was dissolved in DMSO:Poly Ethylene Glycol-400: 0.5% w/v Sodium carboxymethyl cellulose in TDW in the ratio of 3:1:4 and was orally administered at the dose of 50 mg/kg to each rat (n = 6). Blood samples were collected in microcentrifuge tubes for each time point at 0.083, 0.167, 0.333, 0.5, 0.75, 1.0, 2.0, 4.0, 6.0, 8.0, 10.0, 12.0, 24.0, 48.0 and 72 h post dosing. The blood samples were collected after light ether anesthesia from the retro-orbital plexus of rats using heparin as anticoagulant. Plasma was separated after centrifugation at 5000 rpm for 10 min and all the samples were stored at −80 °C until analysis. Rat plasma samples were processed using liquid-liquid extraction. 100 µL aliquot of plasma mixed with 150 µL of acetonitrile and 100 µL of 5 mM NaHCO3 solution was added and vortexed to mix well. In each sample, 2.5 mL of tert-Butyl methyl ether (TBME) (extraction solvent) was added and vortexed for 10 min at 2500 rpm on vibramax (Heidolph, Schwabach, Germany) followed by centrifugation (Eppendorf, Hamburg, Germany) at 5,000 rpm for 5 min. An aliquot of 2.0 mL of supernatant organic layer was separated and evaporated on vacuum concentrator (Thermo scientific, Asheville, USA) to complete dryness. The residue was reconstituted with 100 µL of mobile phase and injected into the LC-MS/MS system for analysis. The plasma samples ([…]) were assayed along with calibration standards and QC samples and the levels of compound 19 was calculated using Analyst software. The pharmacokinetic profile and parameters were evaluated by non-compartmental model approach using Pheonix 6.3 WinNonlin (Pharsight corporation, USA) including t1/2, elimination half-life; Cmax, maximum plasma concentration; tmax, time to reach maximum plasma concentration; AUC0-t, area under concentration curve from zero to last time point.
# [7] = male, Sprague Dawley, plasma, iv, I.V route, 5 mg/kg
# [8] = male, Sprague Dawley, plasma, oral route, 50 mg/kg
smiles,measurement,setting,value
"COc1cc(/C=C/c2cc(=O)oc3c2ccc2ccccc23)cc(OC)c1 [Compound 19, (E)-4-(3,5-dimethoxystyryl)-2H-benzo[h]chromen-2-one]",Apoptosis,"[1]; 6 µM, 24 h",10.78 ± 1.21%
same,Apoptosis,"[1]; 6 µM, 48 h",18.68 ± 4.86%
same,Apoptosis,"[1]; 12 µM, 24 h",16.37 ± 1.18%
same,Apoptosis,"[1]; 12 µM, 48 h",36.17 ± 3.43%
same,DNA ligase activity in cell free extracts of treated cells,[2],can inhibit DNA ligase activity
same,Stability in SGF (simulated gastric fluid),"[3]; pH 1.2, 37 °C",83.19 ± 3.22%
same,Stability in SIF (simulated intestinal fluid),"[3]; pH 6.8, 37 °C",96.45 ± 0.79%
same,Colony forming ability,[4],inhibited colony forming ability of cells
same,Inhibition of PARP1 activity,[5],not able to inhibit
same,Cmax,"[6]; male, Sprague Dawley, iv, I.V route, 5 mg/kg, plasma concentration at 5 min",325 ± 102 ng/mL
same,AUC(0-t),[6]; [7],457 ± 131 ng·h/mL
same,half-life,[6]; [7],19.2 ± 11.8 h
same,bioavailability,"[6]; male, Sprague Dawley, plasma, oral 50 mg/kg versus I.V 5 mg/kg, read-out: Bioavailability (%F)",7.85 ± 0.65%
same,AUC(0-t),[6]; [8],342 ± 18.6 ng·h/mL
same,Cmax,[6]; [8],13.4 ± 2.92 ng/mL
same,Tmax,[6]; [8],0.5 h
same,half-life,[6]; [8],22.8 ± 4.69 h
same,Time up to which plasma concentrations are detectable,"[6]; after oral dosing, 50 mg/kg",up to 72 h
